Assay results from patent publication US7691836B2, “Progesterone receptor modulators” (N.V. Organon, priority 2004, dated 2010).

How the values were obtained:
[1] = molecular target: T1, progesterone receptor-B (Homo sapiens, UniProt P06401); experiment: Progesterone receptor-B transactivation, antagonistic mode (inhibition of luciferase transactivation by inducer, CHO cells); type: cell-based
T1 sequence (P06401 1-933): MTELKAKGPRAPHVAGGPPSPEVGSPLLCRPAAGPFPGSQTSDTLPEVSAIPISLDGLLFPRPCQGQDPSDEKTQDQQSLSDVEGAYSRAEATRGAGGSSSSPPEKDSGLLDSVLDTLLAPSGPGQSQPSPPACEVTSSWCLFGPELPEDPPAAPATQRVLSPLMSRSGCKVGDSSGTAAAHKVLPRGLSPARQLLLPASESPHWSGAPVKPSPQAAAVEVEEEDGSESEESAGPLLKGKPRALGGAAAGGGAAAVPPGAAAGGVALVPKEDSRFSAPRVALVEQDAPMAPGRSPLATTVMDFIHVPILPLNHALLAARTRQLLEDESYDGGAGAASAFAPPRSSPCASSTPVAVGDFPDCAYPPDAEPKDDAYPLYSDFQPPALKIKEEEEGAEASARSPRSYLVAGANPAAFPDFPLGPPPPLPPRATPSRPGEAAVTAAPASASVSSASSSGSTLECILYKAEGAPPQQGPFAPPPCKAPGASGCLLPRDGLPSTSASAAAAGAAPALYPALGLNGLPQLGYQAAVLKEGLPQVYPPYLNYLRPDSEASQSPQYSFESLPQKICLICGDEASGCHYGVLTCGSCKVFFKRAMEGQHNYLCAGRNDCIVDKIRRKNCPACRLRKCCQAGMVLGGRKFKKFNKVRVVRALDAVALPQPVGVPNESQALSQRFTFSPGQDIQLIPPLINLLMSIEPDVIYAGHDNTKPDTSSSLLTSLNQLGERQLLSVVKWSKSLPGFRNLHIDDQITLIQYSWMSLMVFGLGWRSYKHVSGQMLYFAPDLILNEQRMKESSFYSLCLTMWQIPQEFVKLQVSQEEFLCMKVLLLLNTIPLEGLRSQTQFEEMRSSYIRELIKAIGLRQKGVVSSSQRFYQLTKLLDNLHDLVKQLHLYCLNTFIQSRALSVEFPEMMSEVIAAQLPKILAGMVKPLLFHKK
Description: In the antagonistic mode, testing must result in an intrinsic activity of between about 85% and about 15% of the maximal activity when (6β,11β,17β)-11-[4-(dimethylamino)phenyl]-4′,5′-dihydro-6-methylspiro[estra-4,9-diene-17,2′(3′H)-furan]-3-one is used as a reference.
(§1) The progestagenic activity of a compound of the invention (EC50 and intrinsic agonistic activity) was determined in an in vitro bioassay of Chinese hamster ovary (CHO) cells as described by W. G. E. J. Schoonen et al. (Anal. Biochem. 261 (1998), 222-224). […] The efficacy of the antagonistic effect was expressed as the percentage of the effect produced by a standard antagonist, (6β,11β,17β)-11-[4-(dimethylamino)phenyl]-4′,5′-dihydro-6-methylspiro[estra-4,9-diene-17,2′(3′H)-furan]-3-one.
(§2) It will be recognized by those skilled in the art that, in the setting described above, the EC50 determined is more or less absolute and depends on the intrinsic property of the tested compound itself, however, the IC50 depends on the amount and agonistic EC50 of the inducer as well as on the intrinsic property of the tested compound itself. Thus, with the same amount of inducer, a relatively strong antagonist will be able to produce a measurable IC50 whereas a relatively weak antagonist may fail to produce a detectable result.

[2] = molecular target: T1, progesterone receptor-B; experiment: Progesterone receptor-B transactivation, agonistic mode (CHO cells, luciferase); type: cell-based
Source text: For selecting compounds of the subject invention with a mixed modulating effect on the progesterone receptor, testing in the agonistic mode must result in an intrinsic activity of between about 15% and about 85% of the maximal activity when (16α)-16-ethyl-21-hydroxy-19-norpregn-4-ene-3,20-dione is used as a reference. Moreover, this maximal agonistic activity should be reached at a concentration of 10^−6 or less, and preferably at a concentration of 10^−8 or less.
as §1, §2

Emax ([1]; CHO, intrinsic antagonistic activity, percentage of effect of standard antagonist (6β,11β,17β)-11-[4-(dimethylamino)phenyl]-4′,5′-dihydro-6-methylspiro[estra-4,9-diene-17,2′(3′H)-furan]-3-one, 0.1 nM inducer, read-out: PRBant Eff (%)): > 27% | EC50 ([1]; in the presence of 0.1 nM inducer (16α)-16-ethyl-21-hydroxy-19-norpregn-4-ene-3,20-dione, read-out: PRBant EC50): 3.25 nM | EC50 ([2]; CHO cells, agonistic mode, read-out: PRBagoEC50): 2.54 nM | Emax ([2]; CHO, intrinsic agonistic activity, relative to reference (16α)-16-ethyl-21-hydroxy-19-norpregn-4-ene-3,20-dione, read-out: PRBago Eff (%)): 52%
SMILES: C[C@@H]1C[C@H]2[C@@H]3CCC4=CC(=O)CCC4=C3[C@@H](c3ccc(-c4ncccn4)cc3)C[C@]2(C)[C@H]1C(=O)C1CC1 [Example 27, (11β,16α,17β)-17-cyclopropylcarbonyl-16-methyl-11-[4-(pyrimidin-2-yl)phenyl]estra-4,9-dien-3-one]
